Test results: the supplement of paper PMC10307832

What was measured:
Assay in all cases: relative viability (nuclei count vs DMSO), 5 days (fraction); higher = more cells survive
Idelalisib + Trametinib = compound: CC[C@H](Nc1ncnc2[nH]cnc12)c1nc2cccc(F)c2c(=O)n1-c1ccccc1 [Idelalisib] + CC(=O)Nc1cccc(-n2c(=O)n(C3CC3)c(=O)c3c(Nc4ccc(I)cc4F)n(C)c(=O)c(C)c32)c1 [Trametinib] (partner 0.02 µM)
In short: (§1)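 Relative viability divides the nuclei count in treated wells by that in vehicle wells. Lung cancer cell lines were seeded in 1536-well plates, dosed by pin tool the next day, and fixed and stained after 5 days in one step with final 0.05% Triton X-100, 1% formaldehyde and 1 ug/ml Hoechst. Dosing was a single drug or a fixed anchor-drug dose plus five library-drug doses (not always all listed) in √10 steps, and values are medians of duplicate plates imaged at 4×.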

Idelalisib + Palbociclib = compound: CC[C@H](Nc1ncnc2[nH]cnc12)c1nc2cccc(F)c2c(=O)n1-c1ccccc1 [Idelalisib] + CC(=O)c1c(C)c2cnc(Nc3ccc(N4CCNCC4)cn3)nc2n(C2CCCC2)c1=O [Palbociclib] (partner 0.5 µM)
In short: as §1

Idelalisib + AZD7762 = compound: CC[C@H](Nc1ncnc2[nH]cnc12)c1nc2cccc(F)c2c(=O)n1-c1ccccc1 [Idelalisib] + NC(=O)Nc1cc(-c2cccc(F)c2)sc1C(=O)N[C@H]1CCCNC1 [AZD7762] (partner 0.2 µM)
In short: as §1

Pemetrexed + Navitoclax = compound: Nc1nc2[nH]cc(CCc3ccc(C(=O)N[C@@H](CCC(=O)O)C(=O)O)cc3)c2c(=O)[nH]1 [Pemetrexed] + CC1(C)CCC(c2ccc(Cl)cc2)=C(CN2CCN(c3ccc(C(=O)NS(=O)(=O)c4ccc(N[C@H](CCN5CCOCC5)CSc5ccccc5)c(S(=O)(=O)C(F)(F)F)c4)cc3)CC2)C1 [Navitoclax] (partner 0.5 µM)
In short: as §1

| Cell Line | relative viability (Idelalisib + Trametinib; first compound 0.04 µM) | relative viability (Idelalisib + Trametinib; first compound 0.1265 µM) | relative viability (Idelalisib + Trametinib; first compound 0.4 µM) | relative viability (Idelalisib + Trametinib; first compound 1.265 µM) | relative viability (Idelalisib + Trametinib; first compound 4 µM) | relative viability (Idelalisib + Palbociclib; first compound 0.04 µM) | relative viability (Idelalisib + Palbociclib; first compound 0.1265 µM) | relative viability (Idelalisib + Palbociclib; first compound 0.4 µM) | relative viability (Idelalisib + Palbociclib; first compound 1.265 µM) | relative viability (Idelalisib + Palbociclib; first compound 4 µM) | relative viability (Idelalisib + AZD7762; first compound 0.04 µM) | relative viability (Idelalisib + AZD7762; first compound 0.1265 µM) | relative viability (Idelalisib + AZD7762; first compound 0.4 µM) | relative viability (Idelalisib + AZD7762; first compound 1.265 µM) | relative viability (Idelalisib + AZD7762; first compound 4 µM) | relative viability (Pemetrexed + Navitoclax; first compound 0.002 µM) | relative viability (Pemetrexed + Navitoclax; first compound 0.006325 µM) | relative viability (Pemetrexed + Navitoclax; first compound 0.02 µM) | relative viability (Pemetrexed + Navitoclax; first compound 0.06325 µM) | relative viability (Pemetrexed + Navitoclax; first compound 0.2 µM) |
| --- | --- | --- | --- | --- | --- | --- | --- | --- | --- | --- | --- | --- | --- | --- | --- | --- | --- | --- | --- | --- |
| EPLC-272H | 0.311 | 0.291 | 0.254 | 0.257 | 0.216 | 0.724 | 0.346 | 0.29 | 0.307 | 0.322 | 0.202 | 0.171 | 0.28 | 0.124 | 0.153 | 1.24 | 1.05 | 1.19 | 1.12 | 1.05 |
| 201T | 0.701 | 0.697 | 0.688 | 0.759 | 0.734 | 0.375 | 0.344 | 0.322 | 0.36 | 0.294 | 0.712 | 0.587 | 0.523 | 0.377 | 0.583 | 1.11 | 1.2 | 1.24 | 1.26 | 1.18 |
| NCI-H3122 | 0.224 | 0.223 | 0.188 | 0.235 | 0.225 | 0.172 | 0.195 | 0.185 | 0.214 | 0.203 | 0.949 | 1.01 | 1.01 | 0.785 | 0.998 | 0.981 | 1.06 | 1.03 | 1.01 | 0.826 |
| NCI-H838 | 0.53 | 0.551 | 0.432 | 0.511 | 0.372 | 0.207 | 0.262 | 0.186 | 0.213 | 0.171 | 0.902 | 0.935 | 0.907 | 0.69 | 0.892 | 1.17 | 1.12 | 1.33 | 0.893 | 0.361 |
| NCI-H1755 | 0.764 | 0.773 | 0.745 | 0.674 | 0.732 | 0.462 | 0.422 | 0.444 | 0.437 | 0.465 | 0.386 | 0.437 | 0.376 | 0.31 | 0.381 | 0.94 | 0.918 | 1.03 | 0.992 | 0.898 |
| HCC-15 | 0.379 | 0.29 | 0.315 | 0.356 | 0.332 | 0.815 | 0.73 | 0.633 | 0.832 | 0.598 | 1.35 | 0.909 | 1.25 | 1.16 | 1.21 | 0.701 | 0.668 | 0.702 | 0.588 | 0.482 |
| NCI-H2087 | 0.206 | 0.23 | 0.204 | 0.205 | 0.156 | 0.216 | 0.173 | 0.15 | 0.223 | 0.169 | 1.34 | 1.33 | 1.32 | 1.19 | 1.32 | 0.946 | 0.951 | 0.951 | 0.749 | 0.746 |
| LK-2 | 0.87 | 0.651 | 0.503 | 0.588 | 0.704 | 0.603 | 0.832 | – | 0.609 | 0.659 | 0.637 | 0.395 | – | 0.27 | 0.371 | 0.835 | 0.844 | 0.823 | 0.8 | 0.592 |
| ChaGo-K-1 | 0.945 | 0.907 | 0.865 | 0.906 | 0.913 | 0.972 | 0.928 | 0.987 | 0.904 | 0.901 | 0.943 | 0.885 | 0.826 | 0.606 | 0.841 | 1.03 | 0.969 | 0.914 | 0.296 | 0.306 |
| HCC-78 | 0.68 | 0.702 | 0.711 | 0.704 | 0.542 | 0.443 | 0.446 | 0.411 | 0.466 | 0.352 | 0.509 | 0.649 | 0.555 | 0.609 | 0.547 | – | 0.646 | 0.547 | 0.242 | 0.207 |
| NCI-H1666 | 0.806 | 0.931 | 0.815 | 0.803 | 0.831 | 0.615 | 0.6 | 0.645 | 0.689 | 0.645 | 0.821 | 0.808 | 0.878 | 0.763 | 0.851 | 0.877 | 0.717 | 0.915 | 0.711 | 0.419 |
| EKVX | 0.332 | 0.406 | 0.352 | 0.334 | 0.278 | 0.362 | 0.373 | 0.358 | 0.325 | 0.298 | 0.706 | 0.698 | 0.596 | 0.558 | 0.64 | 0.913 | 0.904 | 0.961 | 0.928 | 0.627 |
| NCI-H322M | 0.58 | 0.57 | 0.479 | 0.505 | 0.537 | 0.495 | 0.488 | 0.424 | 0.435 | 0.508 | 0.628 | 0.524 | 0.678 | 0.439 | 0.525 | 1.16 | 1.25 | 1.17 | 1.15 | 1.14 |
| HARA | 0.78 | 0.773 | – | 0.593 | 0.671 | 0.334 | 0.223 | 0.261 | 0.238 | 0.225 | 0.309 | 0.301 | – | 0.169 | 0.392 | 1 | 1.1 | 1.17 | 1.08 | 0.381 |
| NCI-H1437 | 0.561 | 0.547 | 0.461 | 0.545 | 0.354 | 0.334 | 0.413 | 0.318 | 0.361 | 0.325 | 1.09 | 1.03 | 1.06 | 0.863 | 1.15 | 0.988 | 1.05 | 1.02 | 0.575 | 0.291 |
| BEN | 1.01 | 0.98 | 0.929 | 0.735 | 0.766 | 0.532 | 0.438 | 0.452 | 0.509 | 0.413 | 0.748 | 0.739 | 0.765 | 0.584 | 0.664 | 0.0683 | 0.0717 | 0.0575 | 0.0762 | 0.0946 |
| LXF-289 | 0.694 | 0.706 | 0.655 | 0.721 | 0.734 | 0.592 | 0.667 | 0.601 | 0.687 | 0.627 | 1.16 | 1.09 | 1.15 | 0.838 | 1.16 | 0.881 | 1 | 0.994 | 0.993 | 0.929 |
| NCI-H1993 | 0.688 | 0.302 | 0.617 | 0.547 | 0.448 | 0.642 | 0.743 | 0.49 | 0.523 | 0.491 | 0.647 | 0.839 | 0.652 | 0.714 | 0.623 | 0.808 | 0.832 | 0.859 | 0.917 | 0.804 |
| NCI-H727 | 0.423 | 0.457 | 0.34 | 0.394 | 0.387 | 0.7 | 0.566 | 0.648 | 0.786 | 0.619 | 0.625 | 0.574 | 0.578 | 0.379 | 0.704 | 0.422 | 0.474 | 0.583 | 0.428 | 0.527 |
| LOU-NH91 | 0.85 | 0.803 | 0.718 | 0.751 | 0.781 | 0.548 | 0.545 | 0.629 | 0.544 | 0.547 | 0.833 | 0.807 | 0.686 | 0.638 | 0.673 | 0.629 | 0.727 | 0.708 | 0.431 | 0.416 |
| NCI-H1975 | 0.328 | 0.382 | 0.37 | 0.375 | 0.288 | 0.586 | 0.653 | 0.429 | 0.583 | 0.406 | 0.75 | 0.724 | 0.661 | 0.743 | 0.646 | – | 1.19 | 1.1 | 1.1 | 0.731 |
| PC-3 [JPC-3] | 0.721 | 0.69 | 0.724 | 0.607 | 0.496 | 0.557 | 0.525 | 0.584 | 0.489 | 0.539 | 0.916 | 0.889 | 0.806 | 0.707 | 0.569 | 0.726 | 0.762 | 0.796 | 0.89 | 0.749 |
| NCI-H2126 | 0.602 | 0.602 | 0.542 | 0.575 | 0.485 | 0.364 | 0.369 | 0.366 | 0.327 | 0.358 | 0.961 | 1.06 | 0.94 | 1.02 | 1 | 0.828 | 0.827 | 0.882 | 0.833 | 0.82 |
| LU99A | 0.6 | 0.539 | 0.546 | 0.542 | 0.502 | 0.41 | 0.424 | 0.357 | 0.429 | 0.39 | 0.335 | 0.422 | 0.294 | 0.209 | 0.425 | 0.73 | 0.75 | 0.774 | 0.87 | 0.748 |
| NCI-H23 | 0.462 | 0.38 | 0.281 | 0.399 | 0.312 | 0.51 | 0.467 | 0.441 | 0.501 | 0.521 | 0.265 | 0.218 | 0.247 | 0.195 | 0.235 | 0.808 | 0.756 | 1.07 | 0.788 | 0.858 |
| PC-14 | 0.648 | 0.757 | 0.695 | 0.723 | 0.509 | 0.539 | 0.511 | 0.439 | 0.561 | 0.415 | 0.313 | 0.446 | 0.334 | 0.265 | 0.301 | 0.976 | 0.976 | 1.05 | 0.428 | 0.129 |
| HCC-44 | 1.07 | 1.04 | 1.08 | 1.06 | 0.941 | 1.02 | 0.887 | 0.984 | 1.04 | 0.96 | 1.04 | 0.998 | 1.03 | 0.991 | 1.11 | 0.864 | 0.836 | 1.02 | 0.929 | 0.866 |
